Assay results from the supplement of paper PMC7695840.
Values joined by “and” are separate entries in the source; they are usually repeats but may differ in a detail not shown here. Equal entries are not always repeated. Structures can show the parent of a compound that is named as a salt.

Legend:
[1] = system: Staphylococcus aureus MW2 (mecA+); experiment: IC50 (growth, competition assay); conditions: cefoxitin: subinhibitory
Procedure, shortened: (§1)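 Signals from DsRed (540/590) and GFP (485/520) were scaled on every plate between single-strain control medians, with No Treatment then set to 0.5. The cells were a 1:1 mix of pre-induced fluorescent S. aureus MW2 strains with and without the resistance gene, grown unshaken for 20 h at 37 °C and 90% humidity in LB in 1536-well plates under a subinhibitory drug dose set each day. Each strain's IC50 was defined as the dose halving the No Treatment signal, or the maximal signal.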

[2] = system: Staphylococcus aureus MW2 delta-mecA (mecA-); experiment: IC50 (growth, competition assay); conditions: cefoxitin: subinhibitory
Procedure, shortened: as §1

`NC1CCN(c2c(F)cc3c(=O)c(C(=O)O)cn(C4CC4)c3c2Cl)C1` (configuration not stated) [CLINAFOXACIN HYDROCHLORIDE] was tested, and the IC50 ([1]; fluorescent label: DsRed) was under 9.85 µM, the IC50 ([1]; fluorescent label: GFP) was under 9.85 µM and the IC50 ([2]; fluorescent label: DsRed) was under 9.85 µM. It also gave an IC50 ([2]; fluorescent label: GFP) of under 9.85 µM.

For `O=C1C(Cl)=C(NCCN2CCOCC2)C(=O)c2ncccc21`, the IC50 ([1]; fluorescent label: DsRed) was 33 µM, the IC50 ([1]; fluorescent label: GFP) was 91.7 µM and the IC50 ([2]; fluorescent label: DsRed) was 28.8 µM. It also gave an IC50 ([2]; fluorescent label: GFP) of under 9.85 µM.

`CCN1CCN(C(=O)N[C@@H](C(=O)N[C@@H]2C(=O)N3[C@@H]2SC(C)(C)[C@@H]3C(=O)O)c2ccccc2)C(=O)C1=O` [PIPRACIL] showed an IC50 ([1]; fluorescent label: DsRed) of 26.8 µM, an IC50 ([1]; fluorescent label: GFP) of 25.2 µM and an IC50 ([2]; fluorescent label: DsRed) of under 9.85 µM. For the same compound, the IC50 ([2]; fluorescent label: GFP) was under 9.85 µM.

In the case of `NC1CCN(c2c(F)cc3c(=O)c(C(=O)O)cn(C4CC4)c3c2Cl)C1` (configuration not stated), the IC50 ([1]; fluorescent label: DsRed) is reported as under 9.85 µM, the IC50 ([1]; fluorescent label: GFP) is reported as under 9.85 µM and the IC50 ([2]; fluorescent label: DsRed) is reported as under 9.85 µM. For the same compound, the IC50 ([2]; fluorescent label: GFP) was under 9.85 µM.

`CN1CCN(c2c(F)cc3c(=O)c(C(=O)O)cn4c3c2OCN4C)CC1` [Marbofloxacin] was tested, and the IC50 ([1]; fluorescent label: DsRed) was 6.41 µM, the IC50 ([1]; fluorescent label: GFP) was 6.33 µM and the IC50 ([2]; fluorescent label: DsRed) was 2.09 µM. It also gave an IC50 ([2]; fluorescent label: GFP) of 1.19 µM.

`CCCCCCCCc1ccc(CCC(N)(CO)CO)cc1` [Fingolimod (FTY720)] was tested, and the IC50 ([1]; fluorescent label: DsRed) was 15.2 µM and 14.7 µM, the IC50 ([1]; fluorescent label: GFP) was 18.8 µM and 14.9 µM and the IC50 ([2]; fluorescent label: DsRed) was 11.8 µM and < 9.85 µM. The IC50 ([2]; fluorescent label: GFP) was 10.7 µM and < 9.85 µM.

For `CN(C(=O)CN(CCO)CC(=O)N(C)C(C)(C)Cc1ccccc1)C(C)(C)Cc1ccccc1` [OXETHAZAINE], the IC50 ([1]; fluorescent label: DsRed) was 103 µM, the IC50 ([1]; fluorescent label: GFP) was 111 µM and the IC50 ([2]; fluorescent label: DsRed) was 40.2 µM. For the same compound, the IC50 ([2]; fluorescent label: GFP) was 30.5 µM.

For `Cc1ccc(-c2cc(C(F)(F)F)nn2-c2ccc(S(N)(=O)=O)cc2)cc1` [Celecoxib], the IC50 ([1]; fluorescent label: DsRed) was 114 µM and 112 µM, the IC50 ([1]; fluorescent label: GFP) was 112 µM and 95.4 µM and the IC50 ([2]; fluorescent label: DsRed) was 8.58 µM and 20.1 µM. The IC50 ([2]; fluorescent label: GFP) was 9.91 µM and 18.2 µM.

In the case of `CC[C@H]1OC(=O)[C@H](C)[C@@H](O[C@H]2C[C@@](C)(OC)[C@@H](O)[C@H](C)O2)[C@H](C)[C@@H](O[C@@H]2O[C@H](C)C[C@H](N(C)C)[C@H]2O)[C@](C)(O)C[C@@H](C)C(=O)[C@H](C)[C@@H](O)[C@]1(C)O` [ERYDERM], the IC50 ([1]; fluorescent label: DsRed) is reported as under 9.85 µM, the IC50 ([1]; fluorescent label: GFP) is reported as under 9.85 µM and the IC50 ([2]; fluorescent label: DsRed) is reported as under 9.85 µM. The IC50 ([2]; fluorescent label: GFP) was under 9.85 µM.

Compound `O=C(O[C@@H]1Cc2c(O)cc(O)cc2O[C@@H]1c1ccc(O)c(O)c1)c1cc(O)c(O)c(O)c1` [EPICATECHIN MONOGALLATE] has an IC50 ([1]; fluorescent label: DsRed) of 83.7 µM, an IC50 ([1]; fluorescent label: GFP) of 140 µM and an IC50 ([2]; fluorescent label: DsRed) of 22.9 µM. The IC50 ([2]; fluorescent label: GFP) was 12.2 µM.

For `CCCCCCCCOc1ccccc1C(=O)Nc1ccc(C(=O)OCC[N+](C)(CC)CC)cc1` [Otilonium Bromide], the IC50 ([1]; fluorescent label: DsRed) was under 9.85 µM, the IC50 ([1]; fluorescent label: GFP) was under 9.85 µM and the IC50 ([2]; fluorescent label: DsRed) was under 9.85 µM. For the same compound, the IC50 ([2]; fluorescent label: GFP) was under 9.85 µM.

`COc1ccc2c(c1)CCC1C2CCC2(C)C(NCCCCCCN3C(=O)C=CC3=O)CCC12` (configuration not stated) was tested, and the IC50 ([1]; fluorescent label: DsRed) was over 150 µM, the IC50 ([1]; fluorescent label: GFP) was over 150 µM and the IC50 ([2]; fluorescent label: DsRed) was 46.3 µM. For the same compound, the IC50 ([2]; fluorescent label: GFP) was 44.2 µM.

Work on `Cc1nnc(SCC2=C(C(=O)O)N3C(=O)[C@@H](NC(=O)Cn4cnnn4)[C@H]3SC2)s1` [ANCEF] yielded an IC50 ([1]; fluorescent label: DsRed) of 17.8 µM, an IC50 ([1]; fluorescent label: GFP) of 14.9 µM and an IC50 ([2]; fluorescent label: DsRed) of under 9.85 µM. For the same compound, the IC50 ([2]; fluorescent label: GFP) was under 9.85 µM.

Work on `CCOC(=O)[C@H](CCc1ccccc1)N[C@@H](C)C(=O)N1Cc2ccccc2C[C@H]1C(=O)O` [ACCUPRIL] yielded an IC50 ([1]; fluorescent label: DsRed) of over 150 µM, an IC50 ([1]; fluorescent label: GFP) of over 150 µM and an IC50 ([2]; fluorescent label: DsRed) of over 150 µM. It also gave an IC50 ([2]; fluorescent label: GFP) of over 150 µM.

Compound `CCN(CC)C(=S)SSC(=S)N(CC)CC` [Tetraethylthiuram disulfide] has an IC50 ([1]; fluorescent label: DsRed) of 33.4 µM, an IC50 ([1]; fluorescent label: GFP) of 36.1 µM and an IC50 ([2]; fluorescent label: DsRed) of under 9.85 µM. The IC50 ([2]; fluorescent label: GFP) was under 9.85 µM.

Work on `C[C@@H](O)[C@H]1C(=O)N2C(C(=O)OCOC(=O)C(C)(C)C)=C(SC3CN(C4=NCCS4)C3)[C@H](C)[C@H]12` [Tebipenem pivoxil (L-084)] yielded an IC50 ([1]; fluorescent label: DsRed) of 1.76 µM, an IC50 ([1]; fluorescent label: GFP) of 1.77 µM and an IC50 ([2]; fluorescent label: DsRed) of under 0.498 µM. The IC50 ([2]; fluorescent label: GFP) was under 0.498 µM.

`CC[C@H]1OC(=O)C[C@@H](O)[C@H](C)[C@@H](O[C@@H]2O[C@H](C)[C@@H](O)[C@H](N(C)C)[C@H]2O)[C@@H](CCN2C[C@H](C)C[C@H](C)C2)C[C@@H](C)C(=O)/C=C/C(C)=C/[C@@H]1CO[C@@H]1O[C@H](C)[C@@H](O)[C@@H](OC)[C@H]1OC` [MICOTIL] gave an IC50 ([1]; fluorescent label: DsRed) of 18.8 µM, an IC50 ([1]; fluorescent label: GFP) of 28.3 µM and an IC50 ([2]; fluorescent label: DsRed) of 13.4 µM. The IC50 ([2]; fluorescent label: GFP) was under 9.85 µM.

In the case of `N[C@@H](Cc1cc(I)c(Oc2cc(I)c(O)c(I)c2)c(I)c1)C(=O)O` [L-Thyroxine], the IC50 ([1]; fluorescent label: DsRed) is reported as under 9.85 µM, the IC50 ([1]; fluorescent label: GFP) is reported as under 9.85 µM and the IC50 ([2]; fluorescent label: DsRed) is reported as under 9.85 µM. For the same compound, the IC50 ([2]; fluorescent label: GFP) was under 9.85 µM.

`CCn1cnc2c(Nc3cccc(Cl)c3)nc(N[C@@H]3CCCC[C@@H]3N)nc21` gave an IC50 ([1]; fluorescent label: DsRed) of 65.8 µM, an IC50 ([1]; fluorescent label: GFP) of 78.3 µM and an IC50 ([2]; fluorescent label: DsRed) of 15.2 µM. The IC50 ([2]; fluorescent label: GFP) was 17 µM.

`O=c1cc(-c2ccc(O)c(O)c2)oc2cc(O)cc(O)c12` [Luteolin] showed an IC50 ([1]; fluorescent label: DsRed) of 57 µM, an IC50 ([1]; fluorescent label: GFP) of 56.6 µM and an IC50 ([2]; fluorescent label: DsRed) of 27.6 µM. For the same compound, the IC50 ([2]; fluorescent label: GFP) was 20 µM.

Work on `Cc1cc(-n2c(=O)[nH]c(=O)n(C)c2=O)ccc1Oc1ccc(SC(F)(F)F)cc1` [Toltrazuril] yielded an IC50 ([1]; fluorescent label: DsRed) of 34.6 µM, an IC50 ([1]; fluorescent label: GFP) of 71.9 µM and an IC50 ([2]; fluorescent label: DsRed) of 24.3 µM. The IC50 ([2]; fluorescent label: GFP) was 27.3 µM.

`NCc1ccccc1CC(=O)N[C@@H]1C(=O)N2C(C(=O)O)=C(CSc3nnnn3CC(=O)O)CS[C@H]12` [PRECEF] gave an IC50 ([1]; fluorescent label: DsRed) of 53.1 µM, an IC50 ([1]; fluorescent label: GFP) of 44.7 µM and an IC50 ([2]; fluorescent label: DsRed) of under 9.85 µM. The IC50 ([2]; fluorescent label: GFP) was under 9.85 µM.

`[O-][n+]1ccccc1[S-].[O-][n+]1ccccc1[S-].[Zn+2]` [ZINC OMADINE] was tested, and the IC50 ([1]; fluorescent label: DsRed) was under 9.85 µM, the IC50 ([1]; fluorescent label: GFP) was under 9.85 µM and the IC50 ([2]; fluorescent label: DsRed) was under 9.85 µM. It also gave an IC50 ([2]; fluorescent label: GFP) of under 9.85 µM.

With `CCCc1c(-c2ccc(O)cc2)nn(-c2ccc(O)cc2)c1-c1ccc(O)cc1` [1,3,5-tris(4-hydroxyphenyl)-4-propyl-1H-pyrazole] the IC50 ([1]; fluorescent label: DsRed) was 12.5 µM, the IC50 ([1]; fluorescent label: GFP) was 20.3 µM and the IC50 ([2]; fluorescent label: DsRed) was under 9.85 µM. It also gave an IC50 ([2]; fluorescent label: GFP) of under 9.85 µM.

Work on `Cc1onc(-c2c(Cl)cccc2Cl)c1C(=O)N[C@@H]1C(=O)N2[C@@H]1SC(C)(C)[C@@H]2C(=O)O` [DYNAPEN] yielded an IC50 ([1]; fluorescent label: DsRed) of under 9.85 µM, an IC50 ([1]; fluorescent label: GFP) of under 9.85 µM and an IC50 ([2]; fluorescent label: DsRed) of under 9.85 µM. For the same compound, the IC50 ([2]; fluorescent label: GFP) was under 9.85 µM.

For `CCN1C[C@H](C)n2c(c(O)c3c(=O)n(Cc4ccc(F)c(Cl)c4)nc(C(=O)NC)c32)C1=O` [MK-2048], the IC50 ([1]; fluorescent label: DsRed) was 80.3 µM, the IC50 ([1]; fluorescent label: GFP) was 64 µM and the IC50 ([2]; fluorescent label: DsRed) was 39.3 µM. It also gave an IC50 ([2]; fluorescent label: GFP) of 40.9 µM.

`O=C(NC[C@H]1CN(c2ccc(N3CCOCC3=O)cc2)C(=O)O1)c1ccc(Cl)s1` [XARELTO] was tested, and the IC50 ([1]; fluorescent label: DsRed) was under 9.85 µM, the IC50 ([1]; fluorescent label: GFP) was under 9.85 µM and the IC50 ([2]; fluorescent label: DsRed) was under 9.85 µM. It also gave an IC50 ([2]; fluorescent label: GFP) of under 9.85 µM.

In the case of `N=C(N)c1ccc(OCCCCCOc2ccc(C(=N)N)cc2)cc1` [Pentamidine HCl], the IC50 ([1]; fluorescent label: DsRed) is reported as 37.3 µM, the IC50 ([1]; fluorescent label: GFP) is reported as 46.4 µM and the IC50 ([2]; fluorescent label: DsRed) is reported as 23.5 µM. It also gave an IC50 ([2]; fluorescent label: GFP) of 16.8 µM.
